{"source": "patent US20200148617A1", "about": "“GEMCABENE, PHARMACEUTICALLY ACCEPTABLE SALTS THEREOF, COMPOSITIONS THEREOF AND METHODS OF USE THEREFOR” (GEMPHIRE THERAPEUTICS INC., priority 2017, published 2020)", "key": {"[1]": {"experiment": "12-week placebo-controlled study of 600 mg QD in hypercholesterolemia patients on statins: safety and tolerability", "type": "in vivo", "details": "add-on to highest doses of background statins", "method": "High-risk patients including some, but not all those with heterozygous familial hypercholesterolemia (HeFH) or atherosclerotic cardiovascular disease (ASCVD) on appropriate diet and stable statin therapy for at least 12 weeks and LDL-C ≥100 mg/dL (2.59 mmol/L) and triglycerides <500 mg/dL (5.65 mmol/L) were randomized into a 12-week, placebo-controlled, parallel-group, double-blind study to assess the efficacy of gemcabene calcium salt hydrate Crystal Form 1 (PSD90=52 μm) 600 mg (300-mg Tablet D×2) QD on LDL-C and other lipoproteins and hsCRP (high-sensitivity C-reactive protein). Safety and tolerability were also evaluated. The patients were stratified by high- or moderate-intensity statin therapy, with or without ezetimibe, with a target of 52 patients (26 patients on 600 mg gemcabene calcium salt hydrate Crystal Form 1 as administered by 2× Tablet D and 26 patients on placebo (“placebo”)) in each stratum. […] Mean baseline LDL-C for all patients was approximately 134 mg/dL (3.48 mmol/L) with most patients in the high-intensity statin stratum on atorvastatin and most patients in the moderate-intensity stratum on either simvastatin or atorvastatin.\n33 of 54 patients (61.1%) in the Tablet D group and 24 of 51 patients (47.1%) in the placebo group who reported at least one AE during the study. The most prevalent AEs were those associated with infections. […]"}, "[2]": {"experiment": "Particle size distribution by laser light diffraction (Malvern Mastersizer 2000, Fraunhofer)", "type": "physicochemical", "details": "cumulative volume", "method": "In some embodiments, the particle size distribution and the PSD90 of a compound of the invention is determined by the laser light diffraction particle size distribution analysis. The particle size distribution is determined in accordance with the Fraunhofer light diffraction method. In this method, a coherent laser beam passes through the sample and the resulting diffraction pattern is focused on a multi-element detector. Since the diffraction pattern depends, among other parameters, on particle size, the particle size distribution can be calculated based on the measured diffraction pattern of the sample. The method is described in more detail in USP38-NF33, <429> Light Diffraction Measurement of Particle Size.\nThe particle size distribution was determined in accordance with the Fraunhofer light diffraction method. A coherent laser beam was passed through the sample and the resulting diffraction pattern was focused on a multi-element detector. Because the diffraction pattern depends, among other parameters, on particle size, the particle size distribution (PSD) was calculated based on the measured diffraction patter of the sample.\nStock dispersion solution was prepared by adding a few drops of the dispersing aid (e.g., 1% w/w solution of a detergent in white spirit such as Span 80, Fluka (85548-250 ml)) to an appropriate amount of substance and mixed carefully. The dispersion was then slowly diluted to a final volume of about 10 ml while vortexing. The suspension cell of the instrument (Malvern Mastersizer 2000 equipped with Hydro 2000S sample dispersion unit) was filled with dispersion medium and a background measurement was taken. […] The cumulative volume distribution was determined in accordance with the instrument's instruction manual.\nThe PSD10, PSD50, and PSD90 values were determined from the cumulative volume distribution of each measurement. Values smaller than 10 μm were reported to one decimal place. Results larger than 10 μm were reported as single digit values. Sample parameters used in analysis are shown below: […]"}, "[3]": {"system": "patients with hypercholesterolemia on stable statins", "experiment": "12-week placebo-controlled study of 600 mg QD in hypercholesterolemia patients on stable moderate and high-intensity statins: atherogenic and inflammatory biomarkers", "type": "in vivo, human", "details": "add-on to background statins", "method": "High-risk patients including some, but not all those with heterozygous familial hypercholesterolemia (HeFH) or atherosclerotic cardiovascular disease (ASCVD) on appropriate diet and stable statin therapy for at least 12 weeks and LDL-C ≥100 mg/dL (2.59 mmol/L) and triglycerides <500 mg/dL (5.65 mmol/L) were randomized into a 12-week, placebo-controlled, parallel-group, double-blind study to assess the efficacy of gemcabene calcium salt hydrate Crystal Form 1 (PSD90=52 μm) 600 mg (300-mg Tablet D×2) QD on LDL-C and other lipoproteins and hsCRP (high-sensitivity C-reactive protein). Safety and tolerability were also evaluated. […]\nWithin the study population, an analysis was performed in a subpopulation of patients having mixed dyslipidemia (LDL-C ≥100 mg/dL and triglycerides ≥200 and <500 mg/dL). Eighteen patients (10 (Tablet D×2) patients and 8 placebo patients) having a baseline mean LDL-C level of 142 mg/dL, baseline mean triglyceride level of 247 mg/dL and BMI of 34 kg/m^2 were analyzed (FIG. 48). Although not measured in the subpopulation of this Example, some cardiometabolic patients could have elevated sulphatase-2 (Sulf-2) levels, which are believed to cause reduced Syndecan-1 (also known as “remnant receptor”)-mediated clearance of atherogenic remnant lipoproteins. […]"}}, "data": [{"smiles": "CC(C)(CCCCOCCCCC(C)(C)C(=O)[O-])C(=O)[O-].O.[Ca+2]", "note": "[6-(5-Carboxy-5-methyl-hexyloxy)-2,2-dimethylhexanoic acid calcium (gemcabene calcium salt) hydrate Crystal Form 1]", "values": [{"measurement": "muscle or liver related toxicities", "setting": "[1]", "result": "No evidence"}, {"measurement": "D10 (PSD10)", "setting": "[2]", "result": "D10 = 8.9 μm"}, {"measurement": "D50 (PSD50)", "setting": "[2]", "result": "D50 = 24.3 μm"}, {"measurement": "D90 (PSD90)", "setting": "[2]", "result": "D90 = 44.1 μm"}, {"measurement": "serum hsCRP", "setting": "[3]", "result": "decreased"}]}]}
